Assay results from the kinase profiling compilation of Christmann-Franck et al. (2016).

Assays:
Assay in all cases: KINOMEscan competition binding
Details in all cases: compound 10.0 µM
CSNK1A1L (human) = CSNK1A1L (human) (UniProt Q8N752)
TNK2 (human) = TNK2 (human) (UniProt Q07912)
EGFR (human) = EGFR (human) (UniProt P00533)
TEC (human) = TEC (human) (UniProt P42680)
MERTK (human) = MERTK (human) (UniProt Q12866)
RPS6KA2 KD2 (human) = RPS6KA2 KD2 (human) (UniProt Q15349)
[1] = tested on: BMX (human), P51813 [V600E]
FLT1 (human) = FLT1 (human) (UniProt P17948)
MAPK6 (human) = MAPK6 (human) (UniProt Q16659)
NTRK1 (human) = NTRK1 (human) (UniProt P04629)
CAMK1D (human) = CAMK1D (human) (UniProt Q8IU85)
MTOR (human) = MTOR (human) (UniProt P42345)
STK10 (human) = STK10 (human) (UniProt O94804)
MAP4K4 (human) = MAP4K4 (human) (UniProt O95819)
STK39 (human) = STK39 (human) (UniProt Q9UEW8)
LATS1 (human) = LATS1 (human) (UniProt O95835)
MAP2K4 (human) = MAP2K4 (human) (UniProt P45985)
DYRK1B (human) = DYRK1B (human) (UniProt Q9Y463)
EIF2AK2 (human) = EIF2AK2 (human) (UniProt P19525)
MST4 (human) = MST4 (human) (UniProt Q9P289)
[2] = tested on: EGFR (human), P00533 [A750P; 747-749 del]
MYLK3 (human) = MYLK3 (human) (UniProt Q32MK0)
CDK2 (human) = CDK2 (human) (UniProt P24941)
PAK4 (human) = PAK4 (human) (UniProt O96013)
MAPK10 (human) = MAPK10 (human) (UniProt P53779)
RPS6KA6 KD2 (human) = RPS6KA6 KD2 (human) (UniProt Q9UK32)
NUAK1 (human) = NUAK1 (human) (UniProt O60285)
ULK2 (human) = ULK2 (human) (UniProt Q8IYT8)
LIMK2 (human) = LIMK2 (human) (UniProt P53671)
SRC (human) = SRC (human) (UniProt P12931)
[3] = target: TYK2 JH1 catalytic (human) (UniProt P29597)
CLK1 (human) = CLK1 (human) (UniProt P49759)
MARK3 (human) = MARK3 (human) (UniProt P27448)
PIK3CA (human) = PIK3CA (human) (UniProt P42336)
MAP2K7 (human) = MAP2K7 (human) (UniProt O14733)
CSNK2A1 (human) = CSNK2A1 (human) (UniProt P68400)
EPHA7 (human) = EPHA7 (human) (UniProt Q15375)
YSK4 (human) = YSK4 (human) (UniProt Q56UN5)
[4] = tested on: PIK3CA (human), P42336 [E542K]
RPS6KA4 KD2 (human) = RPS6KA4 KD2 (human) (UniProt O75676)

YSK4 (human), sequence (Q56UN5 whole entry, looked up): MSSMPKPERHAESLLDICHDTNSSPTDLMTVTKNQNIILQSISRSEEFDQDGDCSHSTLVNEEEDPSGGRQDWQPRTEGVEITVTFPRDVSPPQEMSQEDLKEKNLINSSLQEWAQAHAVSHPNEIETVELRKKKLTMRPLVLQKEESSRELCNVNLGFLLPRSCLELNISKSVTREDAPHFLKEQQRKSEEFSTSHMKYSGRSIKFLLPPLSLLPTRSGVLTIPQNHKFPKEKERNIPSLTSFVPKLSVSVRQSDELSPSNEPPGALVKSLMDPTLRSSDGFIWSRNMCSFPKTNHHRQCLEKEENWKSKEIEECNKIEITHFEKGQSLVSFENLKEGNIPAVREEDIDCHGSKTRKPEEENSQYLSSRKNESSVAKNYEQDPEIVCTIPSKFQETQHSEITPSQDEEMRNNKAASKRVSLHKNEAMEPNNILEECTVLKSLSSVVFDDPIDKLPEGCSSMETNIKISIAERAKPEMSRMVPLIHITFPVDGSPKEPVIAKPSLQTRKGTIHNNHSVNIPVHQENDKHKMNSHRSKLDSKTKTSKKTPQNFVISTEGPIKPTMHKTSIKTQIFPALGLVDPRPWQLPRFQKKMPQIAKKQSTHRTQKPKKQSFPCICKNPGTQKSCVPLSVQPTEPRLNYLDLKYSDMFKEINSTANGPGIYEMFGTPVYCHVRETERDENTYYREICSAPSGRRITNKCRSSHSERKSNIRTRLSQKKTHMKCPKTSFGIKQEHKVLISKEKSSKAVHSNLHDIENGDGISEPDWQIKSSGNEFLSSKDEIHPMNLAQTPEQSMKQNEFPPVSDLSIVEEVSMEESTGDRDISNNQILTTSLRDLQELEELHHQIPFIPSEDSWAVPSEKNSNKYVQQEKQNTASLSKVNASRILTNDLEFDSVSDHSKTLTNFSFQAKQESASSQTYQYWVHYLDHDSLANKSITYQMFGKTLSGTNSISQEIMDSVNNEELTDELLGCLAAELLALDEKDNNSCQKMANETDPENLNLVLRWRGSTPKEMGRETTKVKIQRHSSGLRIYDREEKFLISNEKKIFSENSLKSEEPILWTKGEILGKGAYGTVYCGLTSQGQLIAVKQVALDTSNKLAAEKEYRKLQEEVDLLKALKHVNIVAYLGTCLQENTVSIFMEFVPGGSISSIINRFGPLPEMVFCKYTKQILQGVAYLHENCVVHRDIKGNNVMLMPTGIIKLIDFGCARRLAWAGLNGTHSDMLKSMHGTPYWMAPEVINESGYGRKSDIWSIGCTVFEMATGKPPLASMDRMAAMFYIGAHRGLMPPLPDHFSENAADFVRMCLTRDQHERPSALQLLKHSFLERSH
LATS1 (human), sequence (O95835 whole entry, looked up): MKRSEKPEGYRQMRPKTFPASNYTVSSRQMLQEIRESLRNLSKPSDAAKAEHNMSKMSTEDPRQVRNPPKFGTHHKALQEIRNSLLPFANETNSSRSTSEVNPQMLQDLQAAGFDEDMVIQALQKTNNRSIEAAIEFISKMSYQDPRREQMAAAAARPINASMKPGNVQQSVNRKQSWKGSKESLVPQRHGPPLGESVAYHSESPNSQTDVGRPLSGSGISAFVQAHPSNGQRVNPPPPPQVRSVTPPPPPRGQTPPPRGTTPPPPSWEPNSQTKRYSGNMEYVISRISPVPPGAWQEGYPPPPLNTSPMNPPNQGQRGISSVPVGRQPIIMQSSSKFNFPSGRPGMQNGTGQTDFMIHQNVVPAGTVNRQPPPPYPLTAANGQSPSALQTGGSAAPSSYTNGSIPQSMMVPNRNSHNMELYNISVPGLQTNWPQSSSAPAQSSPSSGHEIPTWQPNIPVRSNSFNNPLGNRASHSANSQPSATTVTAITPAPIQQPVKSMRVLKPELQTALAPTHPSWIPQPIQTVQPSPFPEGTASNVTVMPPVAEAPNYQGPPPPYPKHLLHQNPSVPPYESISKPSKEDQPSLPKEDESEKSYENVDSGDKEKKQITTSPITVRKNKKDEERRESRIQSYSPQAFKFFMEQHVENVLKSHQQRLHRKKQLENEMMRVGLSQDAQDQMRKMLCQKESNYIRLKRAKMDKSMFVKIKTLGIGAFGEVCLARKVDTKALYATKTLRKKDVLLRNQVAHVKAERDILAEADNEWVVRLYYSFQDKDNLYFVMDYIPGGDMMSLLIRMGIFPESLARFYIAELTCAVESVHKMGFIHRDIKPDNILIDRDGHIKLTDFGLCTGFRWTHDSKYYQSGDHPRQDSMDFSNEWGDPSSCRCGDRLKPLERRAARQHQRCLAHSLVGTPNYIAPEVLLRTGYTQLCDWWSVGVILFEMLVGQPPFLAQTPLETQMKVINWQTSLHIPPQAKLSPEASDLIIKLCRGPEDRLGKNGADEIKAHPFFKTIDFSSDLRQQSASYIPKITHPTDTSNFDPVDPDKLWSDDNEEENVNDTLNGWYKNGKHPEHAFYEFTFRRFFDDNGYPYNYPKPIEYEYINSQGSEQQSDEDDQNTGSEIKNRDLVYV
CAMK1D (human), sequence (Q8IU85 whole entry, looked up): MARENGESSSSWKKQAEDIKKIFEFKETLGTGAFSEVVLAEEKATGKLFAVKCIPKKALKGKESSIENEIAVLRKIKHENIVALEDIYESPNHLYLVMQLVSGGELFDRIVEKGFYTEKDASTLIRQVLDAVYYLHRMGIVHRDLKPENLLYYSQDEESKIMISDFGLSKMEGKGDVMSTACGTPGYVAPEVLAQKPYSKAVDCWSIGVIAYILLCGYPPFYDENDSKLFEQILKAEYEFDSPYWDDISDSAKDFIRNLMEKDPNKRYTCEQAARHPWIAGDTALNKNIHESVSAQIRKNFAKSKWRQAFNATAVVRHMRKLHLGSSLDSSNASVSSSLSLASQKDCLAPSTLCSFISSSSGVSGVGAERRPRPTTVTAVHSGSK
MST4 (human), sequence (Q9P289 whole entry, looked up): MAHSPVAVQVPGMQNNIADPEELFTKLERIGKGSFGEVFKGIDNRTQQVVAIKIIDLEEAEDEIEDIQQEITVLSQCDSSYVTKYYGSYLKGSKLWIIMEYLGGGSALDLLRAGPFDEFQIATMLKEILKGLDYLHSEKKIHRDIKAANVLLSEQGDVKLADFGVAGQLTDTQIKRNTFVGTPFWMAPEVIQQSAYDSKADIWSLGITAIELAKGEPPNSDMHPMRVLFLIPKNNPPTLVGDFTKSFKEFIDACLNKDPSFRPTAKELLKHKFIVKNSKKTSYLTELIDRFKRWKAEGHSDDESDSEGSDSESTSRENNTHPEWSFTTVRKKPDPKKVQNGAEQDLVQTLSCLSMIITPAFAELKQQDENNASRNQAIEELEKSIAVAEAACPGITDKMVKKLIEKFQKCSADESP
RPS6KA2 KD2 (human), sequence (Q15349 whole entry, looked up): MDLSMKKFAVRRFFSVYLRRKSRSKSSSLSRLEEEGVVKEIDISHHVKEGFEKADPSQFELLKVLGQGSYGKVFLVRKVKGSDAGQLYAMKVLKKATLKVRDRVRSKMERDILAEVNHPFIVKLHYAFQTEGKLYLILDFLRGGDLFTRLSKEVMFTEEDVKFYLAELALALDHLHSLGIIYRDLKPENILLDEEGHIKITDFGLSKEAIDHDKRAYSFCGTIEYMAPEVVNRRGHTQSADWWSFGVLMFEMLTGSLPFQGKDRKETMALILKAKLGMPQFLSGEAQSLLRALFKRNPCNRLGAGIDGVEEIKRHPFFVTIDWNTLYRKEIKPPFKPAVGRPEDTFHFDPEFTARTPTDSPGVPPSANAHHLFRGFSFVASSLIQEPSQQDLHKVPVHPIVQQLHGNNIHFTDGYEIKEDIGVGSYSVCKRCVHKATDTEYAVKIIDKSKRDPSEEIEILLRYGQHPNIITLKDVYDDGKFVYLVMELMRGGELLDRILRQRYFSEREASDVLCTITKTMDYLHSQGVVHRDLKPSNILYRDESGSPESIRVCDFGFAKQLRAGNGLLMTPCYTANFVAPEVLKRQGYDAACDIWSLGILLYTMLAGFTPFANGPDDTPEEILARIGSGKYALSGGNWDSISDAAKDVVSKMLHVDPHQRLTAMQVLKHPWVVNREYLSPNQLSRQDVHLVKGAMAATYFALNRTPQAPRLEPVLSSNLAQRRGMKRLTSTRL
CSNK1A1L (human), sequence (Q8N752 whole entry, looked up): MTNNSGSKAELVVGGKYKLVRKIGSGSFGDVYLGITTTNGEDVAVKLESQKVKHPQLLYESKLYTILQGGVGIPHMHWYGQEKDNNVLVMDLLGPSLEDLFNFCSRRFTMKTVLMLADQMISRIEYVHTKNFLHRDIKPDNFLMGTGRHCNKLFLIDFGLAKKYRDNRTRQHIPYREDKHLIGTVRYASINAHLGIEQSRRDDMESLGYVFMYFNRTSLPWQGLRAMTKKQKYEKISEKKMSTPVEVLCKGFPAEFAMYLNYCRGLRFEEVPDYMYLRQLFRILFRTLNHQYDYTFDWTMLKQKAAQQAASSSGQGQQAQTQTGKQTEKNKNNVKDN
LIMK2 (human), sequence (P53671 whole entry, looked up): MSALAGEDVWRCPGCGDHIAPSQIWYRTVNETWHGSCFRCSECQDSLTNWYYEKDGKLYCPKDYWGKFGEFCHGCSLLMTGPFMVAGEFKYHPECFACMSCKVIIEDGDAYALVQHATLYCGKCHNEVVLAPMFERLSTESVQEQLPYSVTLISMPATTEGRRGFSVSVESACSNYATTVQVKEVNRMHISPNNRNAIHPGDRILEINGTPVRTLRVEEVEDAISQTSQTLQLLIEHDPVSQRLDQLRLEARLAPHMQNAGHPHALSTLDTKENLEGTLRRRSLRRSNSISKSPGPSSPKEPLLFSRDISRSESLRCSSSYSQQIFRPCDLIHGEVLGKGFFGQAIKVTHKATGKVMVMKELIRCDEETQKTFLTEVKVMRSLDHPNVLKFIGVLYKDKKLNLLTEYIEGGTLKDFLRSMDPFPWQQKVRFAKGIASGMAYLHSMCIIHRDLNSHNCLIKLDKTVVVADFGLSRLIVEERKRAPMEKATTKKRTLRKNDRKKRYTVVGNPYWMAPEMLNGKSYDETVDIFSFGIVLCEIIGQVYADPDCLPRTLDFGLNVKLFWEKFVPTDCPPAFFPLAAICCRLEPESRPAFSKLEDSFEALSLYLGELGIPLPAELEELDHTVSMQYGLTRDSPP

`N#Cc1cc(-c2ccnc(Nc3ccc(-n4cnc(-c5cccnc5)n4)cc3)n2)cc(N2CCOCC2)c1` was tested, and the kinase still bound, per cent of control (CSNK1A1L (human)) was 80%, the kinase still bound, per cent of control (TNK2 (human)) was 61% and the kinase still bound, per cent of control (EGFR (human)) was 71%. For the same molecule, the kinase still bound, per cent of control (TEC (human)) was 93%, the kinase still bound, per cent of control (MERTK (human)) was 57% and the kinase still bound, per cent of control (RPS6KA2 KD2 (human)) was 75%. It also gave a kinase still bound, per cent of control [1] of 72%, a kinase still bound, per cent of control (FLT1 (human)) of 48% and a kinase still bound, per cent of control (MAPK6 (human)) of 0.95%. The kinase still bound, per cent of control (NTRK1 (human)) was 53%, the kinase still bound, per cent of control (CAMK1D (human)) was 87% and the kinase still bound, per cent of control (MTOR (human)) was 100%. For the same molecule, the kinase still bound, per cent of control (STK10 (human)) was 39%, the kinase still bound, per cent of control (MAP4K4 (human)) was 24% and the kinase still bound, per cent of control (STK39 (human)) was 100%. The kinase still bound, per cent of control (LATS1 (human)) was 100%, the kinase still bound, per cent of control (MAP2K4 (human)) was 2.8% and the kinase still bound, per cent of control (DYRK1B (human)) was 10%. For the same molecule, the kinase still bound, per cent of control (EIF2AK2 (human)) was 48%, the kinase still bound, per cent of control (MST4 (human)) was 62% and the kinase still bound, per cent of control [2] was 62%. For the same molecule, the kinase still bound, per cent of control (MYLK3 (human)) was 100%, the kinase still bound, per cent of control (CDK2 (human)) was 30% and the kinase still bound, per cent of control (PAK4 (human)) was 31%. It also gave a kinase still bound, per cent of control (MAPK10 (human)) of 0.15%, a kinase still bound, per cent of control (RPS6KA6 KD2 (human)) of 88% and a kinase still bound, per cent of control (NUAK1 (human)) of 100%. It also gave a kinase still bound, per cent of control (ULK2 (human)) of 90%, a kinase still bound, per cent of control (LIMK2 (human)) of 60% and a kinase still bound, per cent of control (SRC (human)) of 38%. It also gave a kinase still bound, per cent of control [3] of 0%, a kinase still bound, per cent of control (CLK1 (human)) of 2.5% and a kinase still bound, per cent of control (MARK3 (human)) of 100%. For the same molecule, the kinase still bound, per cent of control (PIK3CA (human)) was 100%, the kinase still bound, per cent of control (MAP2K7 (human)) was 100% and the kinase still bound, per cent of control (CSNK2A1 (human)) was 2.2%. For the same molecule, the kinase still bound, per cent of control (EPHA7 (human)) was 85%, the kinase still bound, per cent of control (YSK4 (human)) was 0.25% and the kinase still bound, per cent of control [4] was 100%. It also gave a kinase still bound, per cent of control (RPS6KA4 KD2 (human)) of 100%.
`CCN1CCN(Cc2ccc(NC(=O)c3ccc(C)c(/C=C/c4cnc5[nH]ccc5c4OC)c3)cc2C(F)(F)F)CC1` gave a kinase still bound, per cent of control (CSNK1A1L (human)) of 100%, a kinase still bound, per cent of control (TNK2 (human)) of 0.8% and a kinase still bound, per cent of control (EGFR (human)) of 0.4%. It also gave a kinase still bound, per cent of control (TEC (human)) of 0.5%, a kinase still bound, per cent of control (MERTK (human)) of 9.2% and a kinase still bound, per cent of control (RPS6KA2 KD2 (human)) of 42%. For the same molecule, the kinase still bound, per cent of control [1] was 0.05%, the kinase still bound, per cent of control (FLT1 (human)) was 2.4% and the kinase still bound, per cent of control (MAPK6 (human)) was 100%. The kinase still bound, per cent of control (NTRK1 (human)) was 2.5%, the kinase still bound, per cent of control (CAMK1D (human)) was 100% and the kinase still bound, per cent of control (MTOR (human)) was 100%. For the same molecule, the kinase still bound, per cent of control (STK10 (human)) was 0%, the kinase still bound, per cent of control (MAP4K4 (human)) was 4.2% and the kinase still bound, per cent of control (STK39 (human)) was 100%. The kinase still bound, per cent of control (LATS1 (human)) was 32%, the kinase still bound, per cent of control (MAP2K4 (human)) was 76% and the kinase still bound, per cent of control (DYRK1B (human)) was 27%. The kinase still bound, per cent of control (EIF2AK2 (human)) was 80%, the kinase still bound, per cent of control (MST4 (human)) was 18% and the kinase still bound, per cent of control [2] was 1.1%. The kinase still bound, per cent of control (MYLK3 (human)) was 100%, the kinase still bound, per cent of control (CDK2 (human)) was 96% and the kinase still bound, per cent of control (PAK4 (human)) was 86%. For the same molecule, the kinase still bound, per cent of control (MAPK10 (human)) was 15%, the kinase still bound, per cent of control (RPS6KA6 KD2 (human)) was 15% and the kinase still bound, per cent of control (NUAK1 (human)) was 100%. For the same molecule, the kinase still bound, per cent of control (ULK2 (human)) was 35%, the kinase still bound, per cent of control (LIMK2 (human)) was 2.9% and the kinase still bound, per cent of control (SRC (human)) was 0.15%. For the same molecule, the kinase still bound, per cent of control [3] was 12%, the kinase still bound, per cent of control (CLK1 (human)) was 14% and the kinase still bound, per cent of control (MARK3 (human)) was 38%. It also gave a kinase still bound, per cent of control (PIK3CA (human)) of 100%, a kinase still bound, per cent of control (MAP2K7 (human)) of 1.4% and a kinase still bound, per cent of control (CSNK2A1 (human)) of 90%. For the same molecule, the kinase still bound, per cent of control (EPHA7 (human)) was 16%, the kinase still bound, per cent of control (YSK4 (human)) was 0.2% and the kinase still bound, per cent of control [4] was 100%. It also gave a kinase still bound, per cent of control (RPS6KA4 KD2 (human)) of 30%.
